As usually defined, the melting point is the temperature of the solid-liquid transition. Regarding `COC(=O)C=Cc1ccc(C(=O)NC[C@H](NC(=O)OCc2ccccc2)C(=O)OC(C)(C)C)s1`, the melting point was 98 °C.

As for `COc1ccc(CN(CCN(C)CCCN=C(NC#N)NCCSCc2csc(NC(=N)N)n2)c2ccccn2)cc1`, the melting point stood at 54 °C.

The molecule `CSC(=S)N1C(CO)Cc2c([nH]c3ccccc23)C1CO` (stereo not drawn) came in with a melting point of 179 to 180 °C.

In turn, `COC(=O)c1sc(-c2ccc(C)cc2)cc1NC(C)=O` displayed a melting point of 127 to 129 °C.

In turn, `COC(=O)c1cccc(C=Cc2nc3cc(F)ccc3s2)c1` gave a melting point of 172 to 173 °C.

`COC(=O)c1cccc(O)c1C` returned a melting point of 74 to 75 °C.

`COc1cc(-c2nn(Cc3ccccc3)c(=O)c3ccccc23)ccc1O`: the melting point was 197 to 200 °C.

For `O=C1Nc2ccc(F)cc2C(C#Cc2ccccc2)(C(F)(F)F)N1` (racemic), the melting point was 107 °C.

`CC(=O)NCCc1ccc(NC(=O)C=C2CC(C(=O)O)Nc3cc(Cl)cc(Cl)c32)cc1` (racemic) came in with a melting point of 254 to 256 °C.

For `CNC(c1ccc(OC)cc1)c1csc(S(N)(=O)=O)c1` (stereo not drawn), the melting point lay in the range of 155 to 156 °C.

In the case of `CCCCC(=NNC(=O)c1ccccc1)c1ccncc1`, the melting point came to 142 °C.

Molecule `CCCCOCCOc1ccc(-c2ccc3c(c2)C=C(C(=O)Nc2ccc(C(O)c4cc(C)ccn4)cc2)CCN3C(=O)C(F)(F)F)cc1` (stereo not drawn) returned a melting point of 101 to 105 °C.

For the molecule `COc1cc(C)cc(OC)c1N(CC1CCCCC1)C(=O)CNC(=O)c1cc2ccccc2n1CCC(=O)O`, the melting point worked out at 110 °C.

As to `O=C(NC(=O)c1ccc(F)cc1Cl)Nc1ccc(OC(F)(F)C(F)Cl)c(Cl)c1` (stereo not drawn), the melting point is 186 °C.

In turn, `CCOc1ccc(OCCCc2cn(-c3ccc(C(F)(F)F)cn3)nc2OCC)c(CCC(=O)O)c1` came in with a melting point of 104 to 105 °C.

As for `CCOC(=O)c1c(CCCCn2cncn2)nc2sc3cnccc3c2c1-c1ccc(OC)c(OC)c1`, the melting point lay within 118 to 119 °C.

The molecule `COc1cc(F)c(C(O)CNCc2csc(NC(C)=O)n2)cc1OC` (stereo not drawn) gave a melting point of 173 to 175 °C.

Molecule `COc1ccc(C)cc1NC(=O)Nc1ccc(C2=CCN(C(=O)Nc3ccc(OCCO)cc3Cl)CC2)cc1` showed a melting point of 117 to 120 °C.

For the molecule `CC(C)Oc1ccc2nc(COc3ccc(CC4SC(=O)NC4=O)cc3)n(C)c2n1` (stereo not drawn), the melting point lay in the range of 210 to 212 °C.

On to `Nc1nc(N)nc(C2CC3CC2CC3c2nc(N)nc(N)n2)n1` (stereo not drawn), for which the melting point fell in the range of 317 to 324 °C.

`CNC(=C[N+](=O)[O-])NCCSCc1nc(CN(C)C)sc1C` registered a melting point of 104 to 106 °C.

For the molecule `Nc1nc(OC2CCCC2)c2ncn([C@@H]3C[C@H](CO)[C@@H](O)C3)c2n1`, the melting point is 181 to 182 °C.

Turning to `CC(=O)N1c2ccccc2OP1c1ccccc1` (stereo not drawn), the melting point was in the range of 73 to 75 °C.

Regarding `COc1ccc(-c2csnn2)cc1C=O`, the melting point was 156 to 157 °C.

Molecule `CC(=NNC(N)=O)c1ccc(NS(C)(=O)=O)c(Oc2ccc(F)cc2F)c1` returned a melting point of 187 to 189 °C.

`CSc1cc(C(F)(F)F)cc(Cl)c1-n1c(Br)nc(Cl)c1S(=O)(=O)C(F)F` came in with a melting point of 116 °C.

Take `CC1=NN(C(=O)NS(=O)(=O)c2c(F)cccc2F)CC1`: the melting point was determined as 196 °C.

As for `Clc1ccc(Nc2nnc(Cc3ccncn3)c3ccccc23)cc1`, the melting point fell in the range of 174 to 176 °C.

As to `CC(C)(C)C(NC(=O)COc1ccccc1)Nc1c(Nc2cccnc2)c(=O)c1=O` (stereo not drawn), the melting point fell in the range of 227 to 228 °C.

`N#Cc1cc(F)c(N=c2snc3n2CCCC3)cc1F`: the melting point came out at 137 °C.

For the molecule `Cc1ccc([C@@H]2c3c(C)c(NC(=O)Cc4ccc(C(F)(F)F)cc4)c(C)c(C)c3OC2(C)C)cc1`, the melting point is 187 to 189 °C.

The molecule `O=S(=O)(Cl)c1ccc(-c2cccs2)s1` gave a melting point of 63 to 64 °C.

On to `COc1cc(C)ccc1OCc1ccccc1`, for which the melting point lay in the range of 38 to 39 °C.

`CC1Nc2ccccc2NC1=S` (stereo not drawn) registered a melting point of 92 to 94 °C.

`O=[N+]([O-])c1ccc(N2CCSCC2)cc1` had a melting point of 142 to 144 °C.

Regarding `Cc1c(C)c2c(c(C)c1NCc1ccccc1)C(c1cccc(C3OCCO3)c1)CO2` (stereo not drawn), the melting point lay in the range of 97 to 99 °C.

As for `CCCCc1c(/C=C/C(=O)O)cc(OC)c2ccc(OC)cc12`, the melting point lay in the range of 174 to 176 °C.

`Cc1c(-c2ccc(O)cc2)n(Cc2ccc(OCCCN3CCCCC3)cc2)c2ccc(O)cc12`: the melting point was 125 to 130 °C.

Regarding `CC(C)c1ccc(CCNc2ncnc3ncccc23)cc1`, the melting point lay in the range of 200 to 203 °C.

Turning to `O=C(N[C@H](Cc1cccc(OC(F)(F)C(F)F)c1)[C@@H](O)c1ccc(F)nc1)c1cccc2c1C=CCCC2` (racemic), the melting point was 140 to 142 °C.

For `Nc1ncnc2ncn(Cc3ccccc3)c12`, the melting point was in the range of 252 to 255 °C.

`CC(=O)SCC(=Cc1ccc2c(c1)OCO2)C(=O)NCCC(=O)OCc1ccccc1` returned a melting point of 76 °C.

The molecule `COC(=O)CC1OC(=O)c2ccccc21` (stereo not drawn) had a melting point of 62 to 63 °C.

For `CCCN(CCC)S(=O)(=O)c1cc(-c2csc(=Nc3cccc(C)c3C)n2C)ccc1Cl`, the melting point lay in the range of 184 to 187 °C.

In turn, `S=c1c2cccnc2c(-c2cccc(Cl)c2)nn1Cc1ccccc1` displayed a melting point of 132 °C.

`O=C(O)C1c2ccccc2CCc2cc(Br)ccc21` (stereo not drawn) showed a melting point of 129 to 131 °C.

As to `Cc1ccc(C(=O)CBr)o1`, the melting point is 60 to 63 °C.

`CN1CC(C(=O)NC2NCCS2)CC2c3ccc(C(C)(C)C)c4[nH]cc(c34)CC21` (stereo not drawn) registered a melting point of 243 to 247 °C.

For the molecule `O=C(NCC#Cc1ccc(C#CCNC(=O)OCc2ccccc2)nc1)OCc1ccccc1`, the melting point lay in the range of 156 to 158 °C.

Molecule `CNC(=O)c1ccc(-c2coc3ccc(-c4nnc(C)o4)cc23)c(Cl)c1` gave a melting point of 250 to 251 °C.

Molecule `Nc1cc(-c2noc(-c3cnn4c(C(F)(F)F)cc(-c5ccc(C(F)(F)F)cc5)nc34)n2)ccn1` gave a melting point of 277 °C.

Molecule `Cc1onc(-c2cccc(Cl)c2)c1CO` returned a melting point of 66 to 68 °C.

Regarding `CN(C)CCC(c1ccc(NC=O)cc1)c1ncc[nH]1` (stereo not drawn), the melting point was in the range of 142 to 144 °C.

For the molecule `CCCC(=O)OC(C)OC(=O)Nc1ccc(Cl)cc1` (stereo not drawn), the melting point was in the range of 52 to 54 °C.

The molecule `Cc1nc(C2CCC(NC(=O)OCC3c4ccccc4-c4ccccc43)CC2)cs1` (stereo not drawn) yielded a melting point of 140 to 141 °C.

`CC(O)C#CC1CCC2C3CCC4CC(O)CCC4(C)C3CCC12C` (stereo not drawn) yielded a melting point of 169 to 171 °C.

The molecule `Clc1ccc(-c2onc3c(CBr)cc(Cl)cc23)cc1` had a melting point of 145 to 147 °C.

The molecule `CC(C)c1ccc(NC(=O)c2ccc(C(=O)O)nc2)cc1C(C)C` registered a melting point of 199 to 200 °C.

Molecule `Cc1ccc(C(C#N)C(=O)C(=O)C(C#N)c2ccc(C)cc2)cc1` (stereo not drawn) registered a melting point of 246 to 250 °C.

As for `CC1(C)C2CCC1(CCCC(=O)O)CC2`, the melting point lay within 72 to 73 °C.

`OCCN1CCC(=C2c3sccc3CCn3ccnc32)CC1` came in with a melting point of 155 °C.

In the case of `FC(F)(F)c1ccc2cc3[nH]c(=S)[nH]c3nc2c1`, the melting point is greater than 320 °C.

In the case of `CC(C)(C)c1cc2c(c(C(C)(C)C)c1)OC(=O)C2c1ccc(C#N)cc1` (stereo not drawn), the melting point was in the range of 136 to 137 °C.

The molecule `CCOC(=O)C1=C(N)NC(N)=C(C(=O)OCC)C1c1ccnc2ccccc12` yielded a melting point of 145 °C.

`CCCn1cc2c(C3C(=O)Nc4ccc(C)cc43)nc(Cl)nc2n1` (stereo not drawn): the melting point lay within 275 to 280 °C.

`COc1ccc(N=C=O)cc1`: the melting point lay within 83 to 84 °C.

As for `O=CC(=CCl)c1ccc(Cl)cc1`, the melting point was found to be 38 °C.

On to `CN1CCC(C(O)(c2ccc(F)cc2)c2ccc3ccccc3c2)CC1` (stereo not drawn), for which the melting point was in the range of 164 to 169 °C.

Take `CCCCCCCCCNC(=O)Nc1ccccc1C(=O)NC1CCN(C(c2ccccc2)c2ccccc2)CC1`: the melting point is 149 to 150 °C.

On to `CC(C)N1C(=O)c2ccccc2N(S(C)(=O)=O)S1(=O)=O`, for which the melting point was in the range of 156 to 158 °C.

With `Cc1cccc2sc3ccccc3c(=O)c12`, the melting point was in the range of 107 to 132 °C.

The molecule `CCN(CC)CCn1nc2c3c(c(NCCNCCO)ccc31)Sc1c(OC)ccc(OC)c1-2` had a melting point of 119 to 123 °C.

As for `COc1c(C(=O)O)oc2c3ccccc3n(-c3ccccc3)c12`, the melting point was 154 to 155 °C.

In turn, `CCOC(=O)Oc1ccc(S(=O)(=O)N2c3cc(F)ccc3-n3cccc3C2CC)cc1` (stereo not drawn) showed a melting point of 96 to 97 °C.

In turn, `Cc1cc(CCCCCOc2c(Cl)cc(C(=O)O)cc2Cl)on1` had a melting point of 67 to 69 °C.

In turn, `CN(C(=O)c1ccccc1)[Si](C)(C)N(C)C(=O)c1ccccc1` had a melting point of 54 to 56 °C.

Molecule `Cc1cc(OCc2cnc(-c3ccc(C(F)(F)F)cc3)nc2C2CC2)ccc1OC(C)(C)C(=O)O` returned a melting point of 191 to 192 °C.

Molecule `Cc1cccc(C2(O)CCN(C)CC2)c1` registered a melting point of 86 to 90 °C.

`COc1cc2c(Nc3ccc4c(c3)NCC4)c(C#N)cnc2cc1OCCCc1ccncc1` came in with a melting point of 100 to 105 °C.

In the case of `CC(C)C(O)c1ccc2oc3ncccc3c(=O)c2c1` (stereo not drawn), the melting point was 160 °C.

On to `CSc1nc2ccc(Cl)cc2c(-c2ccccc2)c1N`, for which the melting point was 115 to 117 °C.

The molecule `Cc1nc(-c2cccc3ccccc23)n2cn[nH]c(=O)c12` yielded a melting point of 261 to 263 °C.

As to `N#Cc1cccc(C2=Nc3cc(N4CCC5(CC4)OCCO5)c(-c4ccccc4F)cc3NC(=O)C2)c1`, the melting point is 253 °C.

Molecule `Cc1oc(-c2ccco2)nc1COc1ccc(COc2ncccc2CC(=O)O)cc1` showed a melting point of 151 to 152 °C.

Consider `O=C(O)Cc1c(-c2ccccc2)nn(-c2ccc(Cl)cc2)c1-c1ccccc1`, for which the melting point lay within 193 to 194 °C.

`COc1cc(C=CC=C2SC(=O)NC2=O)ccc1OC(C)C` displayed a melting point of 230 to 231 °C.

Molecule `COc1ccc(S(=O)(=O)c2c(C(C)C)nn3ccccc23)cc1` came in with a melting point of 138 to 139 °C.

`Fc1ccc(-n2nc(-c3nc(-c4ccccc4)cs3)c3c2C2CCC3C2)c(F)c1` (stereo not drawn) showed a melting point of 128 to 130 °C.

These data come from a melting point compilation (Tetko et al.; mined from patent text by program, amines drawn as free bases though some values may be those of a salt).
